Where a SMILES comes first, the peptide text is derived from it. [ ]: non-standard residue; d: D form. The star is where a group is joined. NHCH2CH2OH = OCCN*; For = O=C*
What was measured:
[1] = H+/Na+ transport assay of bead-derived peptides (one-point); format: biochemical; set-up: key: relative activity; mean of two control wells = 1.00; conditions: bead-derived peptide solution, EYPC/EYPG LUVs;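 further: relative to parent gramicidin A activity set to 1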
Summary of the method: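 H+/Na+ transport is monitored through pyranine fluorescence in freshly extruded LUVs after a 30-min room-temperature vortex with each library peptide at a single concentration. Signals are normalized to detergent (Triton X-100) and untreated controls.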

[2] = tested on: P388 mouse leukemia cells; conditions: 92 h
Summary of the method: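 P388 cells at 1 × 10^4 cells/mL (final) were exposed to library peptides (stocks diluted 250-fold in RPMI1640/10% FBS) for 92 h at 37 °C, 5% CO2. Viable cells were counted by WST-1/1-methoxy PMS (4 h), absorbance 415 nm, and expressed as cell viability (%).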

[3] = tested on: Streptococcus pyogenes SSI-9; assay: Antibacterial activity assay of bead-derived peptides (three concentrations); format: cell-based; set-up: key: +++: inhibition by the 640-fold diluted peptide solution; ++: inhibition by the 160-fold diluted solution; +: inhibition by the 40-fold diluted solution; -: no inhibition; conditions: S. pyogenes, bead-derived peptide solution, three concentrations
Summary of the method: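 Undiluted, 4-fold and 16-fold DMSO-diluted peptide stocks; S. pyogenes SSI-9, 2 × 10^5 CFU, cation-adjusted MHB (50 mg/L Ca2+, 25 mg/L Mg2+) + 5% laked horse blood; 37 °C, 18 h; readout = cell pellet visible or not.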

CC(C)C[C@@H](NC(=O)[C@H](C)NC(=O)[C@H](NC(=O)[C@H](C)NC(=O)CNC(=O)[C@@H](NC=O)C(C)C)C(C)C)C(=O)N[C@H](C(=O)N[C@@H](C(=O)N[C@@H](Cc1c[nH]c2ccccc12)C(=O)N[C@@H](C(=O)N[C@@H](Cc1c[nH]c2ccccc12)C(=O)N[C@@H](C(=O)N[C@@H](Cc1c[nH]c2ccccc12)C(=O)N[C@H](CC(C)C)C(=O)N[C@@H](Cc1c[nH]c2ccccc12)C(=O)NCCO)C(C)C)C(C)C)C(C)C)C(C)C [compound 9192] (For-VGA[dV]A[dL]V[dV]W[dV]W[dV]W[dL]W-NHCH2CH2OH)
H+/Na+ transport activity normalized against the value of 1 (1.00) [1]: 1.07
cell viability/% [2]: 100.0%
antibacterial activity [3]: -

CC(C)C[C@@H](NC(=O)[C@H](Cc1c[nH]c2ccccc12)NC(=O)[C@H](NC(=O)[C@H](Cc1c[nH]c2ccccc12)NC(=O)[C@@H](CC(C)C)NC(=O)[C@H](Cc1c[nH]c2ccccc12)NC(=O)[C@@H](CC(C)C)NC(=O)[C@@H](NC(=O)[C@H](NC(=O)[C@H](C)NC(=O)[C@H](NC(=O)[C@H](C)NC(=O)CNC(=O)[C@@H](NC=O)C(C)C)[C@H](C)O)C(C)C)C(C)C)C(C)C)C(=O)N[C@@H](Cc1c[nH]c2ccccc12)C(=O)NCCO [compound 4440] (For-VGA[dT]A[dV]V[dL]W[dL]W[dV]W[dL]W-NHCH2CH2OH)
H+/Na+ transport activity normalized against the value of 1 (1.00) [1]: 1.15
cell viability/% [2]: 85.6%
antibacterial activity [3]: -

CC(C)C[C@@H](NC(=O)[C@H](C)NC(=O)CNC(=O)[C@@H](NC=O)C(C)C)C(=O)N[C@@H](C)C(=O)N[C@H](CC(C)C)C(=O)N[C@H](C(=O)N[C@H](CC(C)C)C(=O)N[C@@H](Cc1c[nH]c2ccccc12)C(=O)N[C@@H](C(=O)N[C@@H](Cc1c[nH]c2ccccc12)C(=O)N[C@@H](C(=O)N[C@@H](Cc1c[nH]c2ccccc12)C(=O)N[C@@H](C(=O)N[C@@H](Cc1c[nH]c2ccccc12)C(=O)NCCO)C(C)C)C(C)C)C(C)C)C(C)C [compound 11323] (For-VGA[dL]A[dL]V[dL]W[dV]W[dV]W[dV]W-NHCH2CH2OH)
H+/Na+ transport activity normalized against the value of 1 (1.00) [1]: 1.02
cell viability/% [2]: 5.2%
antibacterial activity [3]: -

CC(C)C[C@@H](NC(=O)[C@H](C)NC(=O)CNC(=O)[C@@H](NC=O)C(C)C)C(=O)N[C@@H](C)C(=O)N[C@@H](C(=O)N[C@H](C(=O)N[C@@H](C(=O)N[C@@H](Cc1c[nH]c2ccccc12)C(=O)N[C@@H](C(=O)N[C@@H](Cc1c[nH]c2ccccc12)C(=O)N[C@H](CC(C)C)C(=O)N[C@@H](Cc1c[nH]c2ccccc12)C(=O)N[C@@H](C(=O)N[C@@H](Cc1c[nH]c2ccccc12)C(=O)NCCO)C(C)C)C(C)C)C(C)C)C(C)C)C(C)C [compound 9036] (For-VGA[dL]A[dV]V[dV]W[dV]W[dL]W[dV]W-NHCH2CH2OH)
H+/Na+ transport activity normalized against the value of 1 (1.00) [1]: 1.18
cell viability/% [2]: 94.7%
antibacterial activity [3]: +

CC(C)C[C@@H](NC(=O)[C@H](C)NC(=O)[C@H](NC(=O)[C@H](C)NC(=O)CNC(=O)[C@@H](NC=O)C(C)C)C(C)C)C(=O)N[C@H](C(=O)N[C@H](CC(C)C)C(=O)N[C@@H](Cc1c[nH]c2ccccc12)C(=O)N[C@H](CC(C)C)C(=O)N[C@@H](Cc1c[nH]c2ccccc12)C(=O)N[C@@H](C(=O)N[C@@H](Cc1c[nH]c2ccccc12)C(=O)N[C@@H](C(=O)N[C@@H](Cc1c[nH]c2ccccc12)C(=O)NCCO)[C@H](C)O)C(C)C)C(C)C [compound 5370] (For-VGA[dV]A[dL]V[dL]W[dL]W[dV]W[dT]W-NHCH2CH2OH)
H+/Na+ transport activity normalized against the value of 1 (1.00) [1]: 1.18
cell viability/% [2]: 100.0%
antibacterial activity [3]: ++

CC(C)C[C@@H](NC(=O)[C@H](C)NC(=O)CNC(=O)[C@@H](NC=O)C(C)C)C(=O)N[C@@H](C)C(=O)N[C@H](CC(C)C)C(=O)N[C@H](C(=O)N[C@@H](C(=O)N[C@@H](Cc1c[nH]c2ccccc12)C(=O)N[C@@H](C(=O)N[C@@H](Cc1c[nH]c2ccccc12)C(=O)N[C@@H](C(=O)N[C@@H](Cc1c[nH]c2ccccc12)C(=O)N[C@H](CC(C)C)C(=O)N[C@@H](Cc1c[nH]c2ccccc12)C(=O)NCCO)[C@H](C)O)C(C)C)C(C)C)C(C)C [compound 6876] (For-VGA[dL]A[dL]V[dV]W[dV]W[dT]W[dL]W-NHCH2CH2OH)
H+/Na+ transport activity normalized against the value of 1 (1.00) [1]: 1.13
cell viability/% [2]: 100.0%
antibacterial activity [3]: -

CC(C)C[C@@H](NC(=O)[C@H](C)NC(=O)[C@H](NC(=O)[C@H](C)NC(=O)CNC(=O)[C@@H](NC=O)C(C)C)C(C)C)C(=O)N[C@H](C(=O)N[C@@H](C(=O)N[C@@H](Cc1c[nH]c2ccccc12)C(=O)N[C@H](CC(C)C)C(=O)N[C@@H](Cc1c[nH]c2ccccc12)C(=O)N[C@@H](C(=O)N[C@@H](Cc1c[nH]c2ccccc12)C(=O)N[C@@H](C(=O)N[C@@H](Cc1c[nH]c2ccccc12)C(=O)NCCO)C(C)C)C(C)C)[C@H](C)O)C(C)C [compound 8779] (For-VGA[dV]A[dL]V[dT]W[dL]W[dV]W[dV]W-NHCH2CH2OH)
H+/Na+ transport activity normalized against the value of 1 (1.00) [1]: 1.07
cell viability/% [2]: 40.6%
antibacterial activity [3]: -

CC(C)C[C@@H](NC(=O)[C@H](C)NC(=O)[C@H](NC(=O)[C@H](C)NC(=O)CNC(=O)[C@@H](NC=O)C(C)C)C(C)C)C(=O)N[C@H](C(=O)N[C@@H](C(=O)N[C@@H](Cc1c[nH]c2ccccc12)C(=O)N[C@@H](C(=O)N[C@@H](Cc1c[nH]c2ccccc12)C(=O)N[C@@H](C(=O)N[C@@H](Cc1c[nH]c2ccccc12)C(=O)N[C@H](CC(C)C)C(=O)N[C@@H](Cc1c[nH]c2ccccc12)C(=O)NCCO)C(C)C)C(C)C)[C@H](C)O)C(C)C [compound 11143] (For-VGA[dV]A[dL]V[dT]W[dV]W[dV]W[dL]W-NHCH2CH2OH)
H+/Na+ transport activity normalized against the value of 1 (1.00) [1]: 1.19
cell viability/% [2]: 63.4%
antibacterial activity [3]: -

CC(C)C[C@@H](NC(=O)[C@H](C)NC(=O)[C@H](NC(=O)[C@H](C)NC(=O)CNC(=O)[C@@H](NC=O)C(C)C)C(C)C)C(=O)N[C@H](C(=O)N[C@H](CC(C)C)C(=O)N[C@@H](Cc1c[nH]c2ccccc12)C(=O)N[C@@H](C(=O)N[C@@H](Cc1c[nH]c2ccccc12)C(=O)N[C@H](CC(C)C)C(=O)N[C@@H](Cc1c[nH]c2ccccc12)C(=O)N[C@@H](C(=O)N[C@@H](Cc1c[nH]c2ccccc12)C(=O)NCCO)C(C)C)C(C)C)C(C)C [compound 906] (For-VGA[dV]A[dL]V[dL]W[dV]W[dL]W[dV]W-NHCH2CH2OH)
H+/Na+ transport activity normalized against the value of 1 (1.00) [1]: 1.06
cell viability/% [2]: 100.0%
antibacterial activity [3]: +

CC(C)C[C@@H](NC(=O)[C@H](C)NC(=O)[C@H](NC(=O)[C@H](C)NC(=O)CNC(=O)[C@@H](NC=O)C(C)C)C(C)C)C(=O)N[C@H](C(=O)N[C@@H](C(=O)N[C@@H](Cc1c[nH]c2ccccc12)C(=O)N[C@@H](C(=O)N[C@@H](Cc1c[nH]c2ccccc12)C(=O)N[C@H](CC(C)C)C(=O)N[C@@H](Cc1c[nH]c2ccccc12)C(=O)N[C@H](CC(C)C)C(=O)N[C@@H](Cc1c[nH]c2ccccc12)C(=O)NCCO)C(C)C)[C@H](C)O)C(C)C [compound 10367] (For-VGA[dV]A[dL]V[dT]W[dV]W[dL]W[dL]W-NHCH2CH2OH)
H+/Na+ transport activity normalized against the value of 1 (1.00) [1]: 1.00
cell viability/% [2]: 100.0%
antibacterial activity [3]: -

CC(C)C[C@@H](NC(=O)[C@H](C)NC(=O)CNC(=O)[C@@H](NC=O)C(C)C)C(=O)N[C@@H](C)C(=O)N[C@@H](C(=O)N[C@H](C(=O)N[C@H](CC(C)C)C(=O)N[C@@H](Cc1c[nH]c2ccccc12)C(=O)N[C@H](CC(C)C)C(=O)N[C@@H](Cc1c[nH]c2ccccc12)C(=O)N[C@H](CC(C)C)C(=O)N[C@@H](Cc1c[nH]c2ccccc12)C(=O)N[C@@H](C(=O)N[C@@H](Cc1c[nH]c2ccccc12)C(=O)NCCO)C(C)C)C(C)C)[C@H](C)O [compound 11302] (For-VGA[dL]A[dT]V[dL]W[dL]W[dL]W[dV]W-NHCH2CH2OH)
H+/Na+ transport activity normalized against the value of 1 (1.00) [1]: 1.05
cell viability/% [2]: 49.1%
antibacterial activity [3]: -

CC(C)C[C@@H](NC(=O)[C@H](C)NC(=O)CNC(=O)[C@@H](NC=O)C(C)C)C(=O)N[C@@H](C)C(=O)N[C@@H](C(=O)N[C@H](C(=O)N[C@@H](C(=O)N[C@@H](Cc1c[nH]c2ccccc12)C(=O)N[C@@H](C(=O)N[C@@H](Cc1c[nH]c2ccccc12)C(=O)N[C@H](CC(C)C)C(=O)N[C@@H](Cc1c[nH]c2ccccc12)C(=O)N[C@@H](C(=O)N[C@@H](Cc1c[nH]c2ccccc12)C(=O)NCCO)C(C)C)C(C)C)C(C)C)C(C)C)[C@H](C)O [compound 10415] (For-VGA[dL]A[dT]V[dV]W[dV]W[dL]W[dV]W-NHCH2CH2OH)
H+/Na+ transport activity normalized against the value of 1 (1.00) [1]: 1.02
cell viability/% [2]: 100.0%
antibacterial activity [3]: -

CC(C)C[C@@H](NC(=O)[C@H](C)NC(=O)[C@H](NC(=O)[C@H](C)NC(=O)CNC(=O)[C@@H](NC=O)C(C)C)C(C)C)C(=O)N[C@H](C(=O)N[C@H](CC(C)C)C(=O)N[C@@H](Cc1c[nH]c2ccccc12)C(=O)N[C@@H](C(=O)N[C@@H](Cc1c[nH]c2ccccc12)C(=O)N[C@@H](C(=O)N[C@@H](Cc1c[nH]c2ccccc12)C(=O)N[C@@H](C(=O)N[C@@H](Cc1c[nH]c2ccccc12)C(=O)NCCO)[C@H](C)O)C(C)C)C(C)C)C(C)C [compound 13147] (For-VGA[dV]A[dL]V[dL]W[dV]W[dV]W[dT]W-NHCH2CH2OH)
H+/Na+ transport activity normalized against the value of 1 (1.00) [1]: 1.09
cell viability/% [2]: 94.4%
antibacterial activity [3]: -

Source: PMC7531004, “Discovery of gramicidin A analogues with altered activities by multidimensional screening of a one-bead-one-compound library” (Nature Communications, 2020)
